Data taken from ChEMBL document CHEMBL3885881, “DrugMatrix”.

Organism: Rattus norvegicus
Experiment: DrugMatrix - Regimen: Daily Repeat
Assay type: toxicity, organism-based, Sprague-Dawley
Parameters: regimen Daily Repeat, gender Male, age 6-8 weeks
Details: in vivo, ip, 1 mg/kg, route intraperitoneal, dose level High, vehicle 100 % SALINE; for ABSOLUTE BASOPHIL / ABSOLUTE EOSINOPHIL / ABSOLUTE LYMPHOCYTE / ABSOLUTE MONOCYTE / ABSOLUTE SEGMENTED NEUTROPHIL / BASOPHIL / EOSINOPHIL / ERYTHROCYTE COUNT / HEMATOCRIT / HEMOGLOBIN / LEUKOCYTE COUNT / LYMPHOCYTE / MEAN CORPUSCULAR HEMOGLOBIN / MEAN CORPUSCULAR HEMOGLOBIN CONCENTRATION / MEAN CORPUSCULAR VOLUME / MONOCYTE / NEUTROPHIL / NUCLEATED RED BLOOD CELLS / PLATELET COUNT: tissue Blood; for ALANINE AMINOTRANSFERASE / ALKALINE PHOSPHATASE / ASPARTATE AMINOTRANSFERASE / BLOOD UREA NITROGEN / CARBON DIOXIDE / CHLORIDE / CHOLESTEROL / CREATININE / GLUCOSE / LACTATE DEHYDROGENASE / LIPASE / PHOSPHORUS / POTASSIUM / SODIUM / TOTAL BILIRUBIN / TOTAL PROTEIN / URIC ACID: tissue Plasma

`CC[C@H]1CN2CCc3cc(OC)c(OC)cc3[C@@H]2C[C@@H]1C[C@H]1NCCc2cc(OC)c(OC)cc21` [EMETINE] was tested, and the “ABSOLUTE BASOPHIL” value (72 h, time 3 day) was 0 CELLS/uL, the “ABSOLUTE EOSINOPHIL” value (72 h, time 3 day) was 235.33 CELLS/uL and the “ABSOLUTE LYMPHOCYTE” value (72 h, time 3 day) was 9173.33 CELLS/uL. For the same molecule, the “ABSOLUTE MONOCYTE” value (72 h, time 3 day) was 141.33 CELLS/uL, the “ABSOLUTE SEGMENTED NEUTROPHIL” value (72 h, time 3 day) was 916.67 CELLS/uL and the BASOPHIL (72 h, time 3 day) was 0%. For the same molecule, the EOSINOPHIL (72 h, time 3 day) was 2.33%, the “ERYTHROCYTE COUNT” value (72 h, time 3 day) was 6.53 x10E6/uL and the HEMATOCRIT (72 h, time 3 day) was 38.67%. For the same molecule, the HEMOGLOBIN (72 h, time 3 day) was 13.97 G/DL, the “LEUKOCYTE COUNT” value (72 h, time 3 day) was 10.47 x10E3/uL and the LYMPHOCYTE (72 h, time 3 day) was 88%. The “MEAN CORPUSCULAR HEMOGLOBIN” value (72 h, time 3 day) was 21.37 pg, the “MEAN CORPUSCULAR HEMOGLOBIN CONCENTRATION” value (72 h, time 3 day) was 36.1 G/DL and the “MEAN CORPUSCULAR VOLUME” value (72 h, time 3 day) was 59.2 fL. For the same molecule, the MONOCYTE (72 h, time 3 day) was 1.33%, the NEUTROPHIL (72 h, time 3 day) was 8.33% and the “NUCLEATED RED BLOOD CELLS” value (72 h, time 3 day) was 0 /100WBC. The “PLATELET COUNT” value (72 h, time 3 day) was 1026.33 x10E3/uL, the “ALANINE AMINOTRANSFERASE” value (72 h, time 3 day) was 66.33 u/L and the “ALKALINE PHOSPHATASE” value (72 h, time 3 day) was 365 u/L. The “ASPARTATE AMINOTRANSFERASE” value (72 h, time 3 day) was 82.33 u/L, the “BLOOD UREA NITROGEN” value (72 h, time 3 day) was 17.67 mg/dL and the “CARBON DIOXIDE” value (72 h, time 3 day) was 34.67 mmol/L. It also gave a CHLORIDE (72 h, time 3 day) of 100.33 MEQ/L, a CHOLESTEROL (72 h, time 3 day) of 63 mg/dL and a CREATININE (72 h, time 3 day) of 0.22 mg/dL. For the same molecule, the GLUCOSE (72 h, time 3 day) was 180.33 mg/dL, the “LACTATE DEHYDROGENASE” value (72 h, time 3 day) was 120.33 u/L and the LIPASE (72 h, time 3 day) was 9 u/L. It also gave a PHOSPHORUS (72 h, time 3 day) of 11.83 mg/dL, a POTASSIUM (72 h, time 3 day) of 6.48 MEQ/L and an SODIUM (72 h, time 3 day) of 146.33 MEQ/L. For the same molecule, the “TOTAL BILIRUBIN” value (72 h, time 3 day) was 0.2 mg/dL, the “TOTAL PROTEIN” value (72 h, time 3 day) was 6.27 G/DL and the “URIC ACID” value (72 h, time 3 day) was 1.73 mg/dL. For the same molecule, the “ABSOLUTE BASOPHIL” value (120 h, time 5 day) was 0 CELLS/uL, the “ABSOLUTE EOSINOPHIL” value (120 h, time 5 day) was 107.33 CELLS/uL and the “ABSOLUTE LYMPHOCYTE” value (120 h, time 5 day) was 9674.67 CELLS/uL. The “ABSOLUTE MONOCYTE” value (120 h, time 5 day) was 240.33 CELLS/uL, the “ABSOLUTE SEGMENTED NEUTROPHIL” value (120 h, time 5 day) was 1811 CELLS/uL and the BASOPHIL (120 h, time 5 day) was 0%. The EOSINOPHIL (120 h, time 5 day) was 1%, the “ERYTHROCYTE COUNT” value (120 h, time 5 day) was 6.23 x10E6/uL and the HEMATOCRIT (120 h, time 5 day) was 37.3%. The HEMOGLOBIN (120 h, time 5 day) was 13.67 G/DL, the “LEUKOCYTE COUNT” value (120 h, time 5 day) was 11.83 x10E3/uL and the LYMPHOCYTE (120 h, time 5 day) was 82.67%. For the same molecule, the “MEAN CORPUSCULAR HEMOGLOBIN” value (120 h, time 5 day) was 21.93 pg, the “MEAN CORPUSCULAR HEMOGLOBIN CONCENTRATION” value (120 h, time 5 day) was 36.67 G/DL and the “MEAN CORPUSCULAR VOLUME” value (120 h, time 5 day) was 59.8 fL. The MONOCYTE (120 h, time 5 day) was 2%, the NEUTROPHIL (120 h, time 5 day) was 14.33% and the “NUCLEATED RED BLOOD CELLS” value (120 h, time 5 day) was 0 /100WBC. The “PLATELET COUNT” value (120 h, time 5 day) was 1167.33 x10E3/uL, the “ALANINE AMINOTRANSFERASE” value (120 h, time 5 day) was 57 u/L and the “ALKALINE PHOSPHATASE” value (120 h, time 5 day) was 325 u/L. For the same molecule, the “ASPARTATE AMINOTRANSFERASE” value (120 h, time 5 day) was 102.33 u/L, the “BLOOD UREA NITROGEN” value (120 h, time 5 day) was 16.67 mg/dL and the “CARBON DIOXIDE” value (120 h, time 5 day) was 28.67 mmol/L. It also gave a CHLORIDE (120 h, time 5 day) of 100.67 MEQ/L, a CHOLESTEROL (120 h, time 5 day) of 52.67 mg/dL and a CREATININE (120 h, time 5 day) of 0.23 mg/dL. The GLUCOSE (120 h, time 5 day) was 272.67 mg/dL, the “LACTATE DEHYDROGENASE” value (120 h, time 5 day) was 312 u/L and the LIPASE (120 h, time 5 day) was 8.67 u/L. It also gave a PHOSPHORUS (120 h, time 5 day) of 14.97 mg/dL, a POTASSIUM (120 h, time 5 day) of 5.87 MEQ/L and an SODIUM (120 h, time 5 day) of 146.87 MEQ/L. The “TOTAL BILIRUBIN” value (120 h, time 5 day) was 0.1 mg/dL, the “TOTAL PROTEIN” value (120 h, time 5 day) was 5.9 G/DL and the “URIC ACID” value (120 h, time 5 day) was 2.8 mg/dL. The “ABSOLUTE BASOPHIL” value ([…], time 14 day) was 0 CELLS/uL, the “ABSOLUTE EOSINOPHIL” value ([…], time 14 day) was 124.6 CELLS/uL and the “ABSOLUTE LYMPHOCYTE” value ([…], time 14 day) was 16602.4 CELLS/uL. The “ABSOLUTE MONOCYTE” value ([…], time 14 day) was 725.4 CELLS/uL, the “ABSOLUTE SEGMENTED NEUTROPHIL” value ([…], time 14 day) was 1987.6 CELLS/uL and the BASOPHIL ([…], time 14 day) was 0%. For the same molecule, the EOSINOPHIL ([…], time 14 day) was 0.6%, the “ERYTHROCYTE COUNT” value ([…], time 14 day) was 6.66 x10E6/uL and the HEMATOCRIT ([…], time 14 day) was 38.76%. The HEMOGLOBIN ([…], time 14 day) was 14.18 G/DL, the “LEUKOCYTE COUNT” value ([…], time 14 day) was 19.44 x10E3/uL and the LYMPHOCYTE ([…], time 14 day) was 85.6%. The “MEAN CORPUSCULAR HEMOGLOBIN” value ([…], time 14 day) was 21.32 pg, the “MEAN CORPUSCULAR HEMOGLOBIN CONCENTRATION” value ([…], time 14 day) was 36.58 G/DL and the “MEAN CORPUSCULAR VOLUME” value ([…], time 14 day) was 58.24 fL. The MONOCYTE ([…], time 14 day) was 3.6%, the NEUTROPHIL ([…], time 14 day) was 10.2% and the “NUCLEATED RED BLOOD CELLS” value ([…], time 14 day) was 0 /100WBC. For the same molecule, the “PLATELET COUNT” value ([…], time 14 day) was 1306.2 x10E3/uL, the “ALANINE AMINOTRANSFERASE” value ([…], time 14 day) was 45.2 u/L and the “ALKALINE PHOSPHATASE” value ([…], time 14 day) was 253.2 u/L. For the same molecule, the “ASPARTATE AMINOTRANSFERASE” value ([…], time 14 day) was 99 u/L, the “BLOOD UREA NITROGEN” value ([…], time 14 day) was 13.6 mg/dL and the “CARBON DIOXIDE” value ([…], time 14 day) was 31.8 mmol/L. For the same molecule, the CHLORIDE ([…], time 14 day) was 101 MEQ/L, the CHOLESTEROL ([…], time 14 day) was 62.2 mg/dL and the CREATININE ([…], time 14 day) was 0.14 mg/dL. For the same molecule, the GLUCOSE ([…], time 14 day) was 143.2 mg/dL, the “LACTATE DEHYDROGENASE” value ([…], time 14 day) was 172.6 u/L and the LIPASE ([…], time 14 day) was 8.8 u/L. It also gave a PHOSPHORUS ([…], time 14 day) of 11.54 mg/dL, a POTASSIUM ([…], time 14 day) of 6.76 MEQ/L and an SODIUM ([…], time 14 day) of 145.5 MEQ/L. The “TOTAL BILIRUBIN” value ([…], time 14 day) was 0.2 mg/dL, the “TOTAL PROTEIN” value ([…], time 14 day) was 5.82 G/DL and the “URIC ACID” value ([…], time 14 day) was 1.66 mg/dL.
